This is an account of results in the OligoGym collection.

The series addresses SOD1. Conditions: ASO.

Several values for one entry are separate records, joined by “and”; a condition that tells them apart may be missing. Equal values may be shown once. After the bases stand the sugars from the 5' end (letter, count) and the backbone: PS all phosphorothioate, else s phosphorothioate and o phosphodiester by linkage. Methylation of C is not given here. e = 2'-O-(2-methoxyethyl) (MOE); k = constrained ethyl (cEt); d = 2'-deoxy (DNA)

“CAGGATACATTTCTACA (sugars e2 k2 d9 k2 e2, PS)”: the target mRNA inhibition (HepG2, 0.1875 µM) came out at 38%; the target mRNA inhibition (HepG2, 0.75 µM) came out at 71%; the target mRNA inhibition (HepG2, 3 µM) came out at 89%; the target mRNA inhibition (HepG2, 4 µM) is 85% and 86%; the target mRNA inhibition (HepG2, 12 µM) is 91% and 97%.

Regarding “GCCCTTCAGCACGCACA (sugars e2 k2 d9 k2 e2, PS)”, the target mRNA inhibition (HepG2, 4 µM) worked out at 60%.

“GCCTCAGACTACATCCA (sugars e2 k2 d9 k2 e2, PS)” yielded a target mRNA inhibition (HepG2, 0.1875 µM) of 34%; a target mRNA inhibition (HepG2, 0.75 µM) of 59%; a target mRNA inhibition (HepG2, 3 µM) of 87%; a target mRNA inhibition (HepG2, 4 µM) of 82%; a target mRNA inhibition (HepG2, 12 µM) of 95%.

Take “ATGAACATGGAATCCAT (sugars e3 k2 d7 k2 e3, PS)”: under “HepG2, 3 µM”, the target mRNA inhibition amounted to 8%.

For the setting “HepG2, 3 µM”, “AAAGTGAGGACCTGCAC (sugars e3 k2 d7 k2 e3, PS)” registered a target mRNA inhibition of 20%.

Turning to “TCTACAGCTAGCAGGAT (sugars e2 k2 d8 k2 e3, PS)”, the target mRNA inhibition stood at 23% (HepG2, 0.1875 µM); 51% (HepG2, 0.75 µM); 74% (HepG2, 3 µM); 75% (HepG2, 4 µM); 91% (HepG2, 12 µM).

Sequence “TGGCAAAATACAGGTCA (sugars e2 k2 d9 k2 e2, PS)” yielded a target mRNA inhibition (HepG2, 5 µM) of 43%.

“CGCGACTACTTTATAGG (sugars e3 k2 d7 k2 e3, PS)” had a target mRNA inhibition (HepG2, 3 µM) of 11%.

Regarding “CAGTGTTTAATGTTTAT (sugars e2 k2 d8 k2 e3, PS)”, the target mRNA inhibition is 30% (HepG2, 0.1875 µM); 61% (HepG2, 0.75 µM); 79% (HepG2, 3 µM); 75% (HepG2, 4 µM); 77% (HepG2, 5 µM); 81% and 87% (HepG2, 12 µM).

“ACAGGGTTTTTATTCAC (sugars e2 k2 d8 k2 e3, PS)” gave a target mRNA inhibition (HepG2, 5 µM) of 29%.

“GAATGACAAAGAAATTCTGA (sugars e5 d10 e5, PS)”: the target mRNA inhibition (HepG2, 5 µM) stood at 0%.

Under “HepG2, 5 µM”, “TAAGTGCCATACAGGGTTTT (sugars e5 d10 e5, PS)” returned a target mRNA inhibition of 13%.

The sequence “TCATAAATCAGTTTCTCACT (sugars e5 d10 e5, PS)” registered a target mRNA inhibition (HepG2, 5 µM) of 21%.

Consider “GGAATGTTTATTGGGCG (sugars e3 k2 d7 k2 e3, PS)”, for which the target mRNA inhibition (HepG2, 3 µM) is 15%.

With “TAAGTCTGGCAAAATAC (sugars e2 k2 d9 k2 e2, PS)”, under “HepG2, 5 µM”, the target mRNA inhibition amounted to 46%.

With “TAACAGATGAGTTAAGG (sugars e2 k2 d9 k2 e2, PS)”, the target mRNA inhibition is, setting by setting: (HepG2, 0.1875 µM) 21%; (HepG2, 0.75 µM) 64%; (HepG2, 3 µM) 85%; (HepG2, 4 µM) 80%; (HepG2, 12 µM) 96%.

In turn, “TTTATTGGGCGATCCCA (sugars e2 k2 d8 k2 e3, PS)” gave a target mRNA inhibition (HepG2, 4 µM) of 34%.

“GTGTTTAATGTTTATC (sugars kekeddddddddekek, linkages s1 o3 s8 o1 s2)”: the target mRNA inhibition reads like this: (A431, 0.12 µM) 7%; (A431, 0.6 µM) 35%; (A431, 3 µM) 66%; (A431, 15 µM) 78%; (HepG2, 0.222 µM) 53%; (HepG2, 0.667 µM) 78%. Besides, the target mRNA inhibition runs as follows: (HepG2, 2 µM) 82%; (HepG2, 6 µM) 90%.

Consider “CATCTGCTTTTTCATGG (sugars e3 k2 d7 k2 e3, PS)”, for which the target mRNA inhibition (HepG2, 3 µM) was 70%.

“TTTAATACCCATCTGTG (sugars e3 k2 d7 k2 e3, PS)” came in with a target mRNA inhibition (HepG2, 3 µM) of 0%.

“ACTTTTAAGATTACAGTGTT (sugars e5 d10 e5, PS)” had a target mRNA inhibition (HepG2, 5 µM) of 24%.

In turn, “GTCTGGCAAAATACAGG (sugars e3 k2 d7 k2 e3, PS)” returned a target mRNA inhibition (HepG2, 3 µM) of 24%.

Regarding “GGATAACAGATGAGTTA (sugars e2 k2 d8 k2 e3, PS)”, the target mRNA inhibition (HepG2, 4 µM) came out at 63%.

Turning to “CATCCAAGGGAATGTTT (sugars e3 k2 d7 k2 e3, PS)”, under “HepG2, 3 µM”, the target mRNA inhibition amounted to 16%.

As for “TCAGTTTCTCACTACAG (sugars e2 k2 d9 k2 e2, PS)”, the target mRNA inhibition (HepG2, 5 µM) worked out at 43%.

As for “AGGATAACAGATGAGTT (sugars e2 k2 d8 k2 e3, PS)”, the target mRNA inhibition came out at 30% (HepG2, 0.1875 µM); 71% (HepG2, 0.75 µM); 87% (HepG2, 3 µM); 84% (HepG2, 4 µM); 95% (HepG2, 12 µM).

The sequence “CAAGTTTAATACCCATC (sugars e2 k2 d8 k2 e3, PS)” registered a target mRNA inhibition (HepG2, 5 µM) of 52%.

Under “HepG2, 3 µM”, “CTTCATCCTTTGGCCCA (sugars e3 k2 d7 k2 e3, PS)” came in with a target mRNA inhibition of 35%.

With “TAACAGATGAGTTAAGG (sugars e2 k2 d8 k2 e3, PS)”, where the note is “HepG2, 4 µM”, the target mRNA inhibition amounted to 68%.

In the case of “ACTACATCCAAGGGAAT (sugars e2 k2 d9 k2 e2, PS)”, under “HepG2, 4 µM”, the target mRNA inhibition was determined as 48%.

Turning to “AGTGTTTAATGTTTATC (sugars e2 k2 d8 k2 e3, linkages s1 o2 s9 o2 s2)”, the target mRNA inhibition was 31% (A431, 0.12 µM); 68% (A431, 0.6 µM); 83% (A431, 3 µM); 86% (A431, 15 µM); 68% (HepG2, 0.222 µM); 76% (HepG2, 0.667 µM). The target mRNA inhibition turned out to be 86% (HepG2, 2 µM) and 84% (HepG2, 6 µM).

With “AGTGAGATCACAGAATCTTC (sugars e5 d10 e5, PS)”, the target mRNA inhibition (HepG2, 5 µM) turned out to be 30%.

“TGCTTTTTCATGGACCA (sugars e3 k2 d7 k2 e3, PS)” yielded a target mRNA inhibition (HepG2, 3 µM) of 51%.

Turning to “AAGTCTGGCAAAATACA (sugars e3 k2 d7 k2 e3, PS)”, under “HepG2, 3 µM”, the target mRNA inhibition was determined as 10%.

Sequence “TCACACAATTACACTTT (sugars e2 k2 d9 k2 e2, PS)” returned a target mRNA inhibition (HepG2, 5 µM) of 39%.

In turn, “GCTTCCCCACACCTTCA (sugars e3 k2 d7 k2 e3, PS)” showed a target mRNA inhibition (HepG2, 3 µM) of 36%.

For “CATTACTTTCCTTCTGC (sugars e3 k2 d7 k2 e3, PS)”, the target mRNA inhibition (HepG2, 3 µM) is 28%.

Consider “TTACAGTGTTTAATGTT (sugars e3 k2 d7 k2 e3, PS)”, for which the target mRNA inhibition (HepG2, 3 µM) came out at 18%.

In turn, “AAACTATACAAATCTTC (sugars e2 k2 d8 k2 e3, PS)” yielded a target mRNA inhibition (HepG2, 5 µM) of 55%.

As to “GATACATTTCTACAGC (sugars kekeddddddddekek, linkages s1 o3 s8 o1 s2)”, the target mRNA inhibition is 12% (A431, 0.12 µM); 22% (A431, 0.6 µM); 21% (A431, 3 µM); 34% (A431, 15 µM); 54% (HepG2, 0.222 µM); 78% (HepG2, 0.667 µM). The target mRNA inhibition by setting is: (HepG2, 2 µM) 89%; (HepG2, 6 µM) 96%.

The sequence “AATCTTCCAAGTGATCA (sugars e2 k2 d9 k2 e2, PS)” had a target mRNA inhibition (HepG2, 5 µM) of 38%.

Regarding “CCATAACTCGCTAGGCCACG (sugars e5 d10 e5, PS)”, the target mRNA inhibition (HepG2, 4 µM) was 22%.

Turning to “AGCAGGATAACAGATGAGTT (sugars e5 d10 e5, PS)”, the target mRNA inhibition runs as follows: (HepG2, 4 µM) 70%; (HepG2, 12 µM) 89%.

Where the note is “HepG2, 3 µM”, “TGAACATGGAATCCATG (sugars e3 k2 d7 k2 e3, PS)” displayed a target mRNA inhibition of 2%.

On to “CAAGTGATCATAAATCA (sugars e2 k2 d9 k2 e2, PS)”, for which the target mRNA inhibition (HepG2, 5 µM) came out at 29%.

For the sequence “TACAGTGTTTAATGTTT (sugars e3 k2 d7 k2 e3, PS)”, the target mRNA inhibition (HepG2, 3 µM) turned out to be 30%.

Take “CAGTCACATTGCCCAAGTCT (sugars e5 d10 e5, PS)”: the target mRNA inhibition (HepG2, 5 µM) is 40% and 27%.

In turn, “GGGCGATCCCAATTACA (sugars e2 k2 d8 k2 e3, PS)” returned a target mRNA inhibition (HepG2, 4 µM) of 30%.

Where the note is “HepG2, 5 µM”, “TGGTCTCCTGAGAGTGAGAT (sugars e5 d10 e5, PS)” came in with a target mRNA inhibition of 24%.

The sequence “AATTACACCACAAGCCA (sugars e3 k2 d7 k2 e3, PS)” came in with a target mRNA inhibition (HepG2, 3 µM) of 21%.

Sequence “CCATCTGTGATTTAAGT (sugars e2 k2 d9 k2 e2, PS)” came in with a target mRNA inhibition (HepG2, 5 µM) of 47%.

The sequence “GGATAGAGGATTAAAGT (sugars e3 k2 d7 k2 e3, PS)” registered a target mRNA inhibition (HepG2, 3 µM) of 14%.

Take “CTCATAATAAGTGCCAT (sugars e2 k2 d9 k2 e2, PS)”: the target mRNA inhibition (HepG2, 5 µM) came out at 44%.

Consider “ATCACAGAATCTTCAATAGA (sugars e5 d10 e5, PS)”, for which the target mRNA inhibition (HepG2, 5 µM) is 11% and 10%.

Consider “GGATAACAGATGAGTTA (sugars e3 k2 d7 k2 e3, PS)”, for which, for the setting “HepG2, 3 µM”, the target mRNA inhibition was found to be 32%.

Regarding “TTGCCCAAGTCTCCAACATG (sugars e5 d10 e5, PS)”, the target mRNA inhibition (HepG2, 5 µM) was 41% and 33%.

For the sequence “TTACACCACAAGCCAAA (sugars e2 k2 d9 k2 e2, PS)”, the target mRNA inhibition (HepG2, 4 µM) turned out to be 63%.

For “AGTGTTTAATGTTTATC (sugars e3 k2 d7 k2 e3, PS)”, the target mRNA inhibition (HepG2, 0.1875 µM) was 52%; the target mRNA inhibition (HepG2, 0.75 µM) came to 78%; the target mRNA inhibition (HepG2, 3 µM) was 67% and 86%; the target mRNA inhibition (HepG2, 12 µM) was 85%.

Under “HepG2, 4 µM”, “AACTCGCTAGGCCACGCCGA (sugars e5 d10 e5, PS)” displayed a target mRNA inhibition of 44%.

As for “CGCCCACTCTGGCCCCA (sugars e3 k2 d7 k2 e3, PS)”, the target mRNA inhibition (HepG2, 3 µM) was found to be 14%.

Where the note is “HepG2, 5 µM”, “TTTCTCACTACAGGTAC (sugars e2 k2 d9 k2 e2, PS)” came in with a target mRNA inhibition of 45%.

Consider “GGATTCTTTTAATAGCC (sugars e2 k2 d8 k2 e3, PS)”, for which the target mRNA inhibition (HepG2, 5 µM) stood at 14%.

In the case of “TCCATTACTTTCCTTCT (sugars e3 k2 d7 k2 e3, PS)”, the target mRNA inhibition (HepG2, 3 µM) turned out to be 18%.

On to “TGCCATACAGGGTTTTT (sugars e2 k2 d8 k2 e3, PS)”, for which, under “HepG2, 5 µM”, the target mRNA inhibition is 21%.

As for “AACAGATGAGTTAAGGG (sugars e2 k2 d9 k2 e2, PS)”, the target mRNA inhibition was 27% (HepG2, 0.1875 µM); 49% (HepG2, 0.75 µM); 82% (HepG2, 3 µM); 86% and 82% (HepG2, 4 µM); 89% and 92% (HepG2, 12 µM).
